In PubChem BioAssay (NCI) one finds TGI and GI50 data, which are given here for 13 compounds.

Test systems include CAKI-1 renal; HCT-15 colon; K-562 leukemia; KM12 colon; LOX IMVI melanoma; NCI-H23 lung; OVCAR-5 ovarian; SF-539 CNS; SK-MEL-5 melanoma; UACC-62 melanoma.
Holding throughout (test): NCI-60 cell line screen, 48 h

Structures are written as SMILES.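 Test compounds were applied to cells in 96-well plates for 48 hours at 5 doses. Here, GI50 denotes the concentration required for 50% inhibition of growth. TGI: total growth inhibition.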 Where a SMILES comes first, the peptide text is derived from it. The star is where a group is joined. Palmitoyl = CCCCCCCCCCCCCCCC(=O)* Some results are limits rather than exact numbers.

On to `O=C(/C=C/c1ccc(Oc2cc(C(=O)/C=C/c3ccc(O)cc3)c(O)cc2O)cc1)c1ccc(O)cc1O`, for which the TGI with CAKI-1 renal amounted to 18.1 µM; in the assay on HCT-15 colon it was 19.4 µM; in the assay on K-562 leukemia, 16.6 µM; in the assay on KM12 colon it was 6.64 µM; in the assay on LOX IMVI melanoma, 28.6 µM; in the assay with NCI-H23 lung, 28.6 µM. The TGI with OVCAR-5 ovarian turned out to be 16.7 µM; in the assay with SF-539 CNS, 6.1 µM; in the assay with SK-MEL-5 melanoma it was 17.1 µM; with UACC-62 melanoma it was 13 µM.

As for `CON(C)c1nc(N(C)OC)nc(N(C)OC)n1`, the TGI in the assay with CAKI-1 renal, in the assay with HCT-15 colon, in the assay with K-562 leukemia, in the assay with KM12 colon, with LOX IMVI melanoma and in the assay on NCI-H23 lung was more than 10 µM each time. Further, the TGI in the assay with OVCAR-5 ovarian, in the assay on SF-539 CNS, in the assay with SK-MEL-5 melanoma and in the assay with UACC-62 melanoma was more than 10 µM each time.

`O=c1c2cc(S(=O)(=O)O)ccc2nc(COc2ccc(Oc3ccc(Cl)cc3Cl)cc2)n1-c1ccc(Oc2ccc(Cl)cc2)cc1Cl`: the TGI is more than 100 µM in the assay with CAKI-1 renal; 43.8 µM with HCT-15 colon; 83.1 µM with K-562 leukemia; more than 100 µM in the assay on KM12 colon; 30.2 µM in the assay on LOX IMVI melanoma; 43 µM in the assay with NCI-H23 lung. The TGI with OVCAR-5 ovarian was found to be 55.1 µM; with SF-539 CNS it was 32.3 µM; with SK-MEL-5 melanoma, 34.6 µM; with UACC-62 melanoma it was 34.7 µM.

For the compound `Cn1c(-c2ccccc2)cc(-c2cccs2)c1-c1cccs1`, the TGI was more than 100 µM in the assay on CAKI-1 renal; more than 100 µM with HCT-15 colon; more than 100 µM with K-562 leukemia; more than 44.9 µM in the assay with KM12 colon; more than 100 µM in the assay with LOX IMVI melanoma; more than 100 µM in the assay on NCI-H23 lung. The TGI in the assay on OVCAR-5 ovarian, in the assay on SF-539 CNS, with SK-MEL-5 melanoma and in the assay with UACC-62 melanoma was more than 100 µM throughout.

`Cc1cc(C)nc(NS(=O)(=O)c2ccc(NC(=O)c3cccc4c(Nc5ccc(S(=O)(=O)Nc6cc(C)on6)cc5)c5ccccc5nc34)cc2)n1`: the TGI in the assay with K-562 leukemia is 80.6 µM; in the assay with KM12 colon, 30.4 µM; with LOX IMVI melanoma, 35.6 µM; with NCI-H23 lung, 42.6 µM; in the assay on OVCAR-5 ovarian it was 34 µM; with SF-539 CNS it was 35.7 µM. The TGI in the assay with UACC-62 melanoma was determined as 40.9 µM.

`CC(C)C(C(=O)O)N1C(=O)c2ccccc2C1=O` (centres undefined): the TGI in the assay with CAKI-1 renal, in the assay on HCT-15 colon, in the assay with K-562 leukemia, in the assay on KM12 colon, in the assay on LOX IMVI melanoma and with NCI-H23 lung was more than 100 µM in each case. Also, the TGI in the assay with OVCAR-5 ovarian, in the assay with SK-MEL-5 melanoma and in the assay on UACC-62 melanoma was more than 100 µM in each case.

Regarding `COC(=O)c1c(C)n([O-])c2cc(Cl)c(Cl)cc2[n+]1=O`, the TGI with CAKI-1 renal was 61 µM; in the assay on HCT-15 colon, 37.9 µM; in the assay on K-562 leukemia it was more than 100 µM; in the assay with KM12 colon, 33.1 µM; with LOX IMVI melanoma, 27.8 µM; in the assay with NCI-H23 lung, more than 100 µM. The TGI is more than 100 µM in the assay with OVCAR-5 ovarian, 54.4 µM in the assay on SF-539 CNS, 23.4 µM in the assay on SK-MEL-5 melanoma and 40.3 µM in the assay on UACC-62 melanoma.

For the compound `CC12C=CC(=O)C=C1CCC1C3CCC(O)(C(=O)CO)C3(C)CC(O)C12F` (centres undefined), the TGI in the assay on CAKI-1 renal, in the assay with HCT-15 colon, in the assay on K-562 leukemia, in the assay on KM12 colon, in the assay with LOX IMVI melanoma and with NCI-H23 lung was more than 100 µM throughout. Also, the TGI in the assay on OVCAR-5 ovarian, in the assay on SF-539 CNS, in the assay with SK-MEL-5 melanoma and in the assay on UACC-62 melanoma was more than 100 µM each time.

As to `C[N+](C)(C)c1ncnc2c1ncn2C1CC(O)C(CO)O1` (centres undefined), the TGI in the assay on CAKI-1 renal, with HCT-15 colon, in the assay on K-562 leukemia, with KM12 colon, in the assay on LOX IMVI melanoma and in the assay with NCI-H23 lung was more than 100 µM each time. In addition, the TGI in the assay with OVCAR-5 ovarian, in the assay with SF-539 CNS, in the assay with SK-MEL-5 melanoma and in the assay on UACC-62 melanoma was more than 100 µM in each case.

With `CCCC1CCC(=C2C(=O)CCC2=O)O1` (centres undefined), the TGI in the assay on CAKI-1 renal, with HCT-15 colon, in the assay with K-562 leukemia, with KM12 colon, in the assay with LOX IMVI melanoma and in the assay on NCI-H23 lung was more than 100 µM in each case. The TGI with OVCAR-5 ovarian, in the assay with SF-539 CNS and in the assay with UACC-62 melanoma was more than 100 µM each time.

On to `COC(=O)C1=C(OC(=O)/C(=C/c2ccc(Cl)cc2)c2ccc(Cl)cc2)C(C(=O)OC)[C@]2(O)[C@@H](C(=O)OC)[C@H]1C[C@@H](c1ccccc1)[C@@H]2C(=O)OC` (some centres undefined), for which the TGI with CAKI-1 renal, in the assay on HCT-15 colon, in the assay on K-562 leukemia, in the assay with KM12 colon, with LOX IMVI melanoma and with NCI-H23 lung was more than 100 µM in each case. Further, the TGI in the assay on OVCAR-5 ovarian, in the assay on SF-539 CNS, in the assay with SK-MEL-5 melanoma and in the assay on UACC-62 melanoma was more than 100 µM throughout.

In the case of `CC(N)Cc1ccc(Cl)c(Cl)c1` (centres undefined), the TGI in the assay on CAKI-1 renal was 74.5 µM; in the assay with HCT-15 colon it was 84.9 µM; with K-562 leukemia, 44 µM; with KM12 colon, more than 100 µM; in the assay with LOX IMVI melanoma, more than 68.5 µM; with NCI-H23 lung, more than 100 µM. Besides, the TGI was more than 82.5 µM with OVCAR-5 ovarian, more than 60.2 µM in the assay on SF-539 CNS, 31 µM in the assay on SK-MEL-5 melanoma and 50.2 µM with UACC-62 melanoma.

`CCCCCCCCCCCCCCCC(=O)N1CCCC1C(=O)NCC(=O)NC(Cc1ccccc1)C(=O)NC(C)C(=O)NC(CO)C(=O)NC(Cc1ccc(O)cc1)C(=O)NC(CCCCN)C(=O)NC(CC(C)C)C(=O)NC(CCCN=C(N)N)C(=O)N1CCCC1C(=O)NCC(N)=O` (centres undefined) (Palmitoyl-PGFASYKLRPG-NH2; configuration not given here): the GI50 was 12.4 µM with CAKI-1 renal; 18.3 µM in the assay on K-562 leukemia; 21.9 µM with KM12 colon; 23.6 µM in the assay on NCI-H23 lung; 15.4 µM in the assay with OVCAR-5 ovarian; 24 µM in the assay on SF-539 CNS. Moreover, the GI50 in the assay on SK-MEL-5 melanoma was 33.4 µM. Besides, the TGI in the assay with CAKI-1 renal was 32.1 µM; in the assay on K-562 leukemia, 32.2 µM; in the assay on KM12 colon, 51.4 µM; in the assay on NCI-H23 lung, 58.9 µM; in the assay on OVCAR-5 ovarian, 38.6 µM; in the assay with SF-539 CNS, 61.4 µM. The compound also came in with a TGI in the assay with SK-MEL-5 melanoma of more than 100 µM.
